The target of assay [1] is T1, Corticotropin-releasing factor receptor 2/Corticotropin-releasing factor-binding protein (Homo sapiens, UniProt P24387+Q13324).
T1 sequence (Q13324 whole entry): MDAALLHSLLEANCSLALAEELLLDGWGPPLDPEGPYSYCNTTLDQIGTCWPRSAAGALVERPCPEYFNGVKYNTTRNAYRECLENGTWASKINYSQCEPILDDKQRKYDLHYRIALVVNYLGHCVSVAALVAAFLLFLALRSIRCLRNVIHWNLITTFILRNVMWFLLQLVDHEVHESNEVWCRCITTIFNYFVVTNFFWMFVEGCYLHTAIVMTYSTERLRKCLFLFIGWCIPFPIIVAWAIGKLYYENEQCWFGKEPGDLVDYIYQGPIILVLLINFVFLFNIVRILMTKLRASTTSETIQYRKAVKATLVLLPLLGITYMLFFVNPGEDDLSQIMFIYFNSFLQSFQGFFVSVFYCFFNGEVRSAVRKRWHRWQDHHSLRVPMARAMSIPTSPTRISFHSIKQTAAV
T1 sequence (P24387 whole entry): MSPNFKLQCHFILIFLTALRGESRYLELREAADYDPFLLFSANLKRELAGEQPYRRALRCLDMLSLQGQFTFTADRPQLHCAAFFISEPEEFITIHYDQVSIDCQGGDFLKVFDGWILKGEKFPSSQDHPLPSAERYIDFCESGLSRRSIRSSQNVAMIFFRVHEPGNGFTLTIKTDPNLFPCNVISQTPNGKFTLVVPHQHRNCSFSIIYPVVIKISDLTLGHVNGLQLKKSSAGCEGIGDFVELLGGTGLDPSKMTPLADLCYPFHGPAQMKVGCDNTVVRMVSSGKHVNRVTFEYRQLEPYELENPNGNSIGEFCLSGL
Description: Dose Response confirmation of uHTS hits for small molecule antagonists of the CRF-binding protein and CRF-R2 receptor complex. As to conditions: read-out: IC50_Mean. The assay is classed as functional.

Assay [2] addresses Nuclear receptor subfamily 5 group A member 2 (Homo sapiens, UniProt O00482). The class given is functional, cell-based.
Another assay concerns the target Steroidogenic factor 1 (Homo sapiens, UniProt Q13285). Description: Counterscreen for inverse agonists of the liver receptor homolog-1 (LRH-1; NR5A2): Luminescence-based cell-based high throughput dose response assay to identify inverse agonists of the Steroidogenic Factor 1 Nuclear Receptor (SF1; NR5A1). The class given is functional. A general note: The purpose of a counterscreen is to sort out artefacts and off-target activity.

For assay [3], the target named is T1, Corticotropin-releasing factor receptor 2/Corticotropin-releasing factor-binding protein. In words: activators of CRF receptor 2 with binding protein – uHTS hits, confirmation (AID 602473). The class given is functional. The settings on record: read-out: EC50_Mean.
Another assay deals with T2, Leucine aminopeptidase (Plasmodium falciparum 3D7, UniProt Q8IL11).
T2 sequence (Q8IL11 whole entry): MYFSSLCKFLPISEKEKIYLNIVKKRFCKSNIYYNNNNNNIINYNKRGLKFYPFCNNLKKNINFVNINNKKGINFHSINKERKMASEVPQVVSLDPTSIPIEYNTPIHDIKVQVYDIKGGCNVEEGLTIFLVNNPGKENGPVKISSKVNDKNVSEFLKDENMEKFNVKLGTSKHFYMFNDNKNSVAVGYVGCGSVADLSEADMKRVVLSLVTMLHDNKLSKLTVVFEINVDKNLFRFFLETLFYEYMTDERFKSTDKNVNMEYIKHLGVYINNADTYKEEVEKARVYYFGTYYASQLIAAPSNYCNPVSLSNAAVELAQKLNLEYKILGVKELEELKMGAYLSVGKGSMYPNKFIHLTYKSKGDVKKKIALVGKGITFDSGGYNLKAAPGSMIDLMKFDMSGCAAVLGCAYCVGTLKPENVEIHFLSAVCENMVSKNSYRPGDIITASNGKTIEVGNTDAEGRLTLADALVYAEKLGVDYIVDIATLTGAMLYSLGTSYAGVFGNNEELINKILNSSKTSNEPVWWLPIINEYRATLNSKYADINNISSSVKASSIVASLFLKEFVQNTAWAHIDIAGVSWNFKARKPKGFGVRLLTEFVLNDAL
In words: P. falciparum M17LAP inhibitors, primary screen, biochemical, fluorogenic H-Leu-NHMec substrate, 1536-well (AID 1619). The class given is functional.

A short description of assay [4]: StAR promoter reporter inhibition counter-screen, dose response, counter-screen for LRH-1 inverse agonist project, cell-based, luminescence, luciferase reporter (AID 651969). The assay is classed as functional.
Assay [5] deals with T3, Probable nicotinate-nucleotide adenylyltransferase (Staphylococcus aureus (strain N315), UniProt P65502). The class given is functional, Staphylococcus aureus subsp. aureus N315.
In a further assay the target is Genome polyprotein (dengue virus type 2, UniProt P29990). In words: Dengue-2 NS5 methyltransferase inhibitors, primary screen, biochemical, confirmation dose response (AID 588689). The assay is classed as functional.
For assay [6], the target named is T3, Probable nicotinate-nucleotide adenylyltransferase. The class given is functional, Staphylococcus aureus subsp. aureus N315. The settings on record: read-out: IC50_Mean.
Assay [7] can be described thus: NIH/3T3 fibroblast cytotoxicity, dose response, cytotoxicity control for T. cruzi growth inhibitor project, cell-based, cherry-pick samples, set 2 (AID 651817). The class given is functional. The settings on record: NIH3T3.
Assay [8] concerns the target T4, Sentrin-specific protease 8 (Homo sapiens, UniProt Q96LD8).
T4 sequence (Q96LD8 whole entry): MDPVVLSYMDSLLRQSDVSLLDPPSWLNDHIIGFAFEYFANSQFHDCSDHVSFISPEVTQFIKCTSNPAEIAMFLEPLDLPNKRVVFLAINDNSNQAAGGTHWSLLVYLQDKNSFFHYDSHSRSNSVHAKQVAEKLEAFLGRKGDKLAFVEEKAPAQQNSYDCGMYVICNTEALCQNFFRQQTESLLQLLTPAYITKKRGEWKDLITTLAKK
The class given is functional.

For assay [9], the target named is T5, Apoptotic protease-activating factor 1 (Homo sapiens, UniProt O14727).
T5 sequence (O14727 whole entry): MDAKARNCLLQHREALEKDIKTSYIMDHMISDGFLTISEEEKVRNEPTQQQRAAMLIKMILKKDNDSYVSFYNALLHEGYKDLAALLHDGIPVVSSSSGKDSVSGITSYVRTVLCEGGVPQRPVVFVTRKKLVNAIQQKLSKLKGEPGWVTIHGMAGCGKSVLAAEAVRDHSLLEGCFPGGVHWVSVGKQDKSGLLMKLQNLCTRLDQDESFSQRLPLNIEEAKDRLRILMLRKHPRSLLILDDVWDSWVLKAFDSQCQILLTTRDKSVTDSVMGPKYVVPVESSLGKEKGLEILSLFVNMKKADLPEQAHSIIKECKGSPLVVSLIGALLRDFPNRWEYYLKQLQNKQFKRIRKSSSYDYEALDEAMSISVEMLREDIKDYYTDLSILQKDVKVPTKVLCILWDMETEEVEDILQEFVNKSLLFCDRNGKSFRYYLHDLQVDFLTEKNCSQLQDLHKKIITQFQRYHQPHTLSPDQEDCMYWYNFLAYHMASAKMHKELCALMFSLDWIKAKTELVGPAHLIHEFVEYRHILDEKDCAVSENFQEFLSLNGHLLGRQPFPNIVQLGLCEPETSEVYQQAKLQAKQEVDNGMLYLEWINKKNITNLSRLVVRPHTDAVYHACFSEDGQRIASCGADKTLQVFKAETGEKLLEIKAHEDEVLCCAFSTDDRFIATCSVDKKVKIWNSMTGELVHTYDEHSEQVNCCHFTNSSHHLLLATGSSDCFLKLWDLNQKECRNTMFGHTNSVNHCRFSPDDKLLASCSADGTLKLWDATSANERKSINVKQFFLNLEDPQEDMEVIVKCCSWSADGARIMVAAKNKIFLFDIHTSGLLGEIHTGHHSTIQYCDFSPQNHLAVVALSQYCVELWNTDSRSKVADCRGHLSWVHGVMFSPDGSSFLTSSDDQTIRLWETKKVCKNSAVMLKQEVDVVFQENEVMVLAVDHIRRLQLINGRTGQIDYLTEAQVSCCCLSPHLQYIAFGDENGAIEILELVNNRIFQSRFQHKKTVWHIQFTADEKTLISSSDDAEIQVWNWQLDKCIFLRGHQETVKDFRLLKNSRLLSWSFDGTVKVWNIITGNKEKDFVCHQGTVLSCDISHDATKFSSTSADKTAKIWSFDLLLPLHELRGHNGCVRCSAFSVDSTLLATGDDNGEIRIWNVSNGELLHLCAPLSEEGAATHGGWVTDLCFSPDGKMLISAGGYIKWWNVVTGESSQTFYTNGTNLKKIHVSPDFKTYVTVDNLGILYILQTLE
The assay is classed as functional.

In assay [10] the target is T4, Sentrin-specific protease 8. The class given is functional. This is another data set of the same source.
In assay [11] the target is T6, Low molecular weight phosphotyrosine protein phosphatase (Homo sapiens, UniProt P24666).
T6 sequence (P24666 whole entry): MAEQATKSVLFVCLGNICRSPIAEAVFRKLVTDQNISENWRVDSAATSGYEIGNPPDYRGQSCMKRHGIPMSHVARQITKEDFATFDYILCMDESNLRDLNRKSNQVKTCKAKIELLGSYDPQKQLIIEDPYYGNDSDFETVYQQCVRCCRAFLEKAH
The assay is classed as functional. As to conditions: read-out: IC50_Mean.

Assay [12] addresses T7, Carboxy-terminal domain RNA polymerase II polypeptide A small phosphatase 1 (Homo sapiens, UniProt Q9GZU7).
T7 sequence (Q9GZU7 whole entry): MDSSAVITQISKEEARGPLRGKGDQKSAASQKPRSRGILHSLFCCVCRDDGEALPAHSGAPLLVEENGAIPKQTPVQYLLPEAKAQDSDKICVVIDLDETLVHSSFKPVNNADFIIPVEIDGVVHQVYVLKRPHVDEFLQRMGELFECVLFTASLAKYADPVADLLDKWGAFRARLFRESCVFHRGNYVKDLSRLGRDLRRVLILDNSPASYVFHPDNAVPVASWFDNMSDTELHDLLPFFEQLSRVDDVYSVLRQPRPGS
In words: inhibitors of CTDSP1, concentration-response testing, biochemical assay, absorbance-based, actives from ultra-high-throughput screening (AID 540297). The class given is functional.

The target in assay [13] is T8, Tyrosine-protein phosphatase non-receptor type 22 (Homo sapiens, UniProt Q9Y2R2).
T8 sequence (Q9Y2R2 whole entry): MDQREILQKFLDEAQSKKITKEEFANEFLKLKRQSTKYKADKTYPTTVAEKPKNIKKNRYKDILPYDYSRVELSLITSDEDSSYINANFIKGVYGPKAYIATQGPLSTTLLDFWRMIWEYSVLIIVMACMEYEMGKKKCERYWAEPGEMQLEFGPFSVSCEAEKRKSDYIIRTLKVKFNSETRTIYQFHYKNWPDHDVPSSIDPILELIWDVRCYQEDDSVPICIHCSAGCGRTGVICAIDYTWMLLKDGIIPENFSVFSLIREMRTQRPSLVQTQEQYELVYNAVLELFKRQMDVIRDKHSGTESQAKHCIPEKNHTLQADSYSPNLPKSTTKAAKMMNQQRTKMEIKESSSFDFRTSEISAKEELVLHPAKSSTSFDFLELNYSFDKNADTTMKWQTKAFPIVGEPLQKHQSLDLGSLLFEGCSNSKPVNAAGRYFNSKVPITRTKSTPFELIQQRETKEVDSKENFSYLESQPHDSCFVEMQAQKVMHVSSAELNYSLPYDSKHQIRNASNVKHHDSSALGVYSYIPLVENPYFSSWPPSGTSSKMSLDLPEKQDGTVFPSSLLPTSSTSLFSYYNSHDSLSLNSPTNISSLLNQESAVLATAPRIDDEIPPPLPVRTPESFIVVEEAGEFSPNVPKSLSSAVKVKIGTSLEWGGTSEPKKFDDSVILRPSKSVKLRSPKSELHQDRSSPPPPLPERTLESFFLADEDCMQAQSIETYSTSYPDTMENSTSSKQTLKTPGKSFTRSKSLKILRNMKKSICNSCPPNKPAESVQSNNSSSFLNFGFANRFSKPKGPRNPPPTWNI
Description: LYP phosphatase inhibition for selectivity, dose response, selectivity assay for LMPTP inhibitor project, biochemical, fluorescence, LYP catalytic domain (AID 652006). The class given is functional. As to conditions: read-out: IC50_Mean.

The target of assay [14] is Beta-lactamase (Pseudomonas aeruginosa, UniProt Q79MP6).
Assay [15] has as its target Beta-lactamase (Salmonella choleraesuis (strain SC-B67), UniProt Q5J463).
The next assay has as its system H9c2. In words: cells. The class given is functional, cell-based. As to conditions: Rattus norvegicus, H9c2, Myocardium.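 Also: confirmatory concentration-response retest of ultra-high-throughput screening hits for modulation of myocardial damage; cell death induced by hydrogen peroxide oxidative stress; compound pretreatment for 60 min then peroxide exposure for 2 h; potency is for protecting the cells against peroxide damage rather than for killing them.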
In assay [16] the target is T6, Low molecular weight phosphotyrosine protein phosphatase. The class given is functional. The settings on record: read-out: IC50_Mean. This is another data set of the same source.

Active and inactive are the calls of the source.

What is called AC50 is the concentration giving half of the maximal activity seen.

T3 sequence (P65502 whole entry): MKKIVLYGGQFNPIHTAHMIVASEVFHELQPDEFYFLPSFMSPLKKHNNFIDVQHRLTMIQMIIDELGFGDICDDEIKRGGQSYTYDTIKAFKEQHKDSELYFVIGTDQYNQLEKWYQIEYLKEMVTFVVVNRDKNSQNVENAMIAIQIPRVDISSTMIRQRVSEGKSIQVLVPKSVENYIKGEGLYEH
Sequence of Nuclear receptor subfamily 5 group A member 2 (O00482 whole entry): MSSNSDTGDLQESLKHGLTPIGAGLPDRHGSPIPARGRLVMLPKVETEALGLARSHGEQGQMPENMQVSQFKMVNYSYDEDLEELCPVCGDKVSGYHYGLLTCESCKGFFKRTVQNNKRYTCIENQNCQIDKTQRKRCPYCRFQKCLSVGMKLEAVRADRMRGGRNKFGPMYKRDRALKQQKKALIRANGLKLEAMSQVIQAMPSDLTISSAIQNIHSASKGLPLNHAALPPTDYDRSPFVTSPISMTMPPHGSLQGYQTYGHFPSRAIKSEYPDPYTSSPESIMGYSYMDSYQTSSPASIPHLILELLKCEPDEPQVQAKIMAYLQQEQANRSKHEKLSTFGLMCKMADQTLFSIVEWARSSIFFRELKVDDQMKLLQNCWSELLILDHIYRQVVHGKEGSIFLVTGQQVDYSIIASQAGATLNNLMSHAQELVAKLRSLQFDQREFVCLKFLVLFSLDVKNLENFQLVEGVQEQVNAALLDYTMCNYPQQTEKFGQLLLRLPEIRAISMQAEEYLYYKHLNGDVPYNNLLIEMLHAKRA
Sequence of Steroidogenic factor 1 (Q13285 whole entry): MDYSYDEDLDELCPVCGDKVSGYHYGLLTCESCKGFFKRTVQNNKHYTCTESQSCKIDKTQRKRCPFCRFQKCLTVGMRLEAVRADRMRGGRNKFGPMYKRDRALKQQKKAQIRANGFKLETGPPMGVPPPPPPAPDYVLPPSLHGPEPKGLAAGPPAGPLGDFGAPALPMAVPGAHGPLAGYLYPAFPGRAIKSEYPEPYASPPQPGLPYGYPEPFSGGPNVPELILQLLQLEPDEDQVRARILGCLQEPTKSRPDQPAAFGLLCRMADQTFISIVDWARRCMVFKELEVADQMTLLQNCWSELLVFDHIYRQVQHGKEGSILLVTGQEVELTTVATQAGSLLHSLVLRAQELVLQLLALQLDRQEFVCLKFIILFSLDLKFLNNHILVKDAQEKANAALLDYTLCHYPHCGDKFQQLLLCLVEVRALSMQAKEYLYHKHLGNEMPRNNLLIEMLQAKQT
Sequence of Genome polyprotein (P29990 2492-3391 limits assumed): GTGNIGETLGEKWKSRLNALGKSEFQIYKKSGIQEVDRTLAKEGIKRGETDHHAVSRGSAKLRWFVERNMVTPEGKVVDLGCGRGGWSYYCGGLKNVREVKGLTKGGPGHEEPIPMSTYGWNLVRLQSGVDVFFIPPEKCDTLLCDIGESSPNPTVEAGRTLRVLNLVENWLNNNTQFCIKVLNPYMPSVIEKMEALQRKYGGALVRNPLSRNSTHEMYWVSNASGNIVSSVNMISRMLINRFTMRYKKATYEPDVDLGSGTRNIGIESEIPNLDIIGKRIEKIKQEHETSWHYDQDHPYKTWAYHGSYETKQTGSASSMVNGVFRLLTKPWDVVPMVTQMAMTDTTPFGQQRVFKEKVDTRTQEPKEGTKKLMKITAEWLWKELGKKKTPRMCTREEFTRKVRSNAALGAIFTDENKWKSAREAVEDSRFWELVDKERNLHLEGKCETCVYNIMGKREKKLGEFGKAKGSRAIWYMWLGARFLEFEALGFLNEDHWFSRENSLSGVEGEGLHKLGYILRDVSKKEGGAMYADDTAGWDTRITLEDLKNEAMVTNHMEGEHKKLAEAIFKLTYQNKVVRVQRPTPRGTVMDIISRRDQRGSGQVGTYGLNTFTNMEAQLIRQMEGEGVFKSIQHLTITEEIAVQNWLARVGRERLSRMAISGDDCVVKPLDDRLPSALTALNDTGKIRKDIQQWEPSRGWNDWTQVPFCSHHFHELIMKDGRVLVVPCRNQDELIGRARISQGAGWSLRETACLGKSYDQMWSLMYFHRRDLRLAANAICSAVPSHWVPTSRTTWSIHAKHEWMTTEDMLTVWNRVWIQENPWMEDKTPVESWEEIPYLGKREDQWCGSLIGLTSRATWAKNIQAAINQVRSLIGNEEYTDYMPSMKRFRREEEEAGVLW
Sequence of Beta-lactamase (Salmonella choleraesuis (strain SC-B67), UniProt Q5J463) (Q5J463 whole entry): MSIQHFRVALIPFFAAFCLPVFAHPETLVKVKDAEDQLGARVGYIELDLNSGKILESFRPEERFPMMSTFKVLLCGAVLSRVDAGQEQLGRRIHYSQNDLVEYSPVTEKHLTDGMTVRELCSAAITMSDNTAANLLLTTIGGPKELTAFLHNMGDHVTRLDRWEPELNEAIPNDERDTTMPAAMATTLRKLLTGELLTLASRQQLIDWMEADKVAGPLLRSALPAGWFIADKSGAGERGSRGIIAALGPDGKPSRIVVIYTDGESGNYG
Sequence of Beta-lactamase (Pseudomonas aeruginosa, UniProt Q79MP6) (Q79MP6 whole entry): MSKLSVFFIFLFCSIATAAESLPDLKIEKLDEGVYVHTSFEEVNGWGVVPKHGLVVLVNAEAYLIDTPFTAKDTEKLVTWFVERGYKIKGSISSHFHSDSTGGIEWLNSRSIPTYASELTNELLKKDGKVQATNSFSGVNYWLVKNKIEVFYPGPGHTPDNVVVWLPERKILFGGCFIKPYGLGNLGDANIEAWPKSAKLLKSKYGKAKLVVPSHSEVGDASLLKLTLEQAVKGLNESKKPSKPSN

Consider `Cc1cccc(NC(=O)CSc2nc3n[nH]cc3c(=O)[nH]2)c1C`, for which the IC50 in assay [1] is > 47.1 µM (inactive); in [2], 6.29 µM (active); on Steroidogenic factor 1 it was 2.59 µM (active); on Leucine aminopeptidase, 4.46 µM (active). Further, in assay [3], the EC50 is > 53 µM (inactive).

For the molecule `O=[N+]([O-])c1ccc(N2CCN(S(=O)(=O)c3ccccc3)CC2)cc1NCc1cccnc1`, the values for the IC50 (in assay [4]; in [2]; at Steroidogenic factor 1) were 35.9 µM (inactive), 14.8 µM (inactive) and 5.39 µM (active), respectively.

Consider `CCOc1ccc(NS(=O)(=O)c2ccc(Cl)c(NN=C3C(=O)NC(=S)NC3=O)c2)cc1Br`, for which the IC50 was 5.55 µM (active) in assay [5], 44.1 µM (active) at Genome polyprotein and 55 µM (active) in [6].

For `C[C@H](CO)N1C[C@H](C)[C@@H](CN(C)Cc2ccc(Cl)c(Cl)c2)Oc2ccc(NS(=O)(=O)c3ccc(F)cc3)cc2CC1=O`, the AC50 in assay [7] was 10.6 µM (active).

As to `Cc1ccc(S(=O)(=O)Nc2ccc3c(c2)CC(=O)N([C@@H](C)CO)C[C@@H](C)[C@@H](CN(C)S(=O)(=O)c2ccc(Cl)cc2)O3)cc1`, the AC50 in [7] is 35 µM (active).

In the case of `Cc1nn(-c2ccc(Cl)cc2)c(O)c1C(c1ccccc1O)c1c(C)[nH]n(-c2ccc(Cl)cc2)c1=O` (stereo not given), the IC50 in [8] was 8.38 µM (active); in assay [5], 6.68 µM (active); in assay [9] it was 13.3 µM (active); in assay [6] it was 21.1 µM (active); in assay [10], 32.9 µM (active).

As for `O=C(Nc1ccc2oc(-c3ccccc3F)nc2c1)c1ccc([N+](=O)[O-])o1`, the IC50 in [11] is 3.72 µM (active); in assay [12], 1.23 µM (active); in assay [13], 7.64 µM (active); at Beta-lactamase [14] it was > 59.6 µM (inactive); on Beta-lactamase [15] it was > 59.6 µM (inactive); in the assay on H9c2, > 79 µM (inactive). The IC50 in [16] was 3.79 µM (active).

Values taken from ChEMBL document CHEMBL1201862, “PubChem BioAssay data set” (2004).
